Measured values from publication PMC7113852 (Antiviral Research, 2018).
Like-named read-outs stand apart in the source and are kept apart here.

What was measured:
HIV-1 = HIV-1 infection of TZM-bl cells, firefly luciferase under HIV-1 LTR promoter; type: cell-based, Human immunodeficiency virus 1; settings: for validation of anti-HIV-1 hit: validation experiment; for EC50: Human immunodeficiency virus 1, TZM-bl, read-out: EC50 other
[1] = tested on: RVFV (rRVFVΔNSs::Katushka); experiment: microbe, parasite or virus in culture; type: cell-based, Rift Valley fever virus
RRV-2SG-NanoLuc [2] = experiment: microbe, parasite or virus in culture; type: cell-based, Ross River virus
RRV-2SG-NanoLuc [3] = experiment: microbe, parasite or virus in culture; type: cell-based, Ross River virus; remark: listed apart in the source
CHIKV-2SG-NanoLuc [4] = experiment: microbe, parasite or virus in culture; type: cell-based, Chikungunya virus
in vitro [5] = settings: human
CHIKV-2SG-NanoLuc [6] = experiment: microbe, parasite or virus in culture; type: cell-based, Chikungunya virus; remark: listed apart in the source
in vitro [7] = settings: human; remark: listed apart in the source
EV1 [8] = experiment: microbe, parasite or virus in culture; type: cell-based, Echovirus 1
EV1 [9] = experiment: microbe, parasite or virus in culture; type: cell-based, Echovirus 1; remark: listed apart in the source
in vitro [10] = settings: human; remark: listed apart in the source
[11] = Rift Valley fever virus, A549, read-out: EC50 other

Molecule: CN(C)c1ccc(O)c2c1C[C@H]1C[C@H]3[C@H](N(C)C)C(O)=C(C(N)=O)C(=O)[C@@]3(O)C(O)=C1C2=O [Minocycline]
- primary screen hit against HIV-1 (HIV-1; HIV-1, TZM-bl cells): anti-HIV-1 agents
- validation of anti-HIV-1 hit (HIV-1; HIV-1, TZM-bl cells): confirmed
- EC50 (HIV-1): 6.84 µM
- SI (minimal selectivity index, CC50/EC50) [1]: >11
- screen hit against RVFV [1]: identified
- EC50 [1, 11]: 9.52 µM

Molecule: COc1c(C)c2c(c(O)c1C/C=C(\C)CCC(=O)O)C(=O)OC2 [Mycophenolic acid]
- antiviral activity in repeat experiments (RRV-2SG-NanoLuc [2]): confirmed antiviral activity
- EC50 (RRV-2SG-NanoLuc [2]; Ross River virus, RPE, read-out: EC50 other): 0.86 µM
- SI (minimal selectivity index, CC50/EC50) (RRV-2SG-NanoLuc [3]): >9
- EC50 (RRV-2SG-NanoLuc [3]; Ross River virus, RPE, read-out: EC50 CTG): 3.19 µM
- antiviral activity in repeat experiments (CHIKV-2SG-NanoLuc [4]): confirmed antiviral activity
- EC50 (CHIKV-2SG-NanoLuc [4]; Chikungunya virus, RPE, read-out: EC50 other): 0.09 µM
- CC50 (in vitro [5]; CC50 CTG): > 30 µM
- CC50 (in vitro [5]; CC50 CTxG): > 30 µM
- SI (minimal selectivity index, CC50/EC50) (CHIKV-2SG-NanoLuc [6]; CHIKV, RPE cells): >333
- EC50 (CHIKV-2SG-NanoLuc [6]; Chikungunya virus, RPE, read-out: EC50 CTxG): 0.08 µM

Molecule: CN[C@H](CC(C)C)C(=O)N[C@H]1C(=O)N[C@@H](CC(N)=O)C(=O)N[C@H]2C(=O)N[C@H]3C(=O)N[C@H](C(=O)N[C@H](C(=O)O)c4cc(O)cc(O)c4-c4cc3ccc4O)[C@H](O[C@H]3C[C@](C)(N)[C@@H](O)[C@H](C)O3)c3ccc(c(Cl)c3)Oc3cc2cc(c3O[C@@H]2O[C@H](CO)[C@@H](O)[C@H](O)[C@H]2O[C@H]2C[C@](C)(NCc3ccc(-c4ccc(Cl)cc4)cc3)[C@@H](O)[C@H](C)O2)Oc2ccc(cc2Cl)[C@H]1O [Oritavancin]
- CC50 (in vitro [7]): 75.8 µM
- screen hit against RVFV [1]: identified
- EC50 [1, 11]: 4.49 µM

Molecule: Cc1ccc2c(c1)c1c3n2CCNC3CCC1 (centres unmarked) [Pirlindole]
- SI (minimal selectivity index, CC50/EC50) (EV1 [8]): 11
- EC50 (EV1 [8]; Enterovirus B, RPE, read-out: EC50 CTxG): 2.71 µM
- antiviral activity in repeat experiments (EV1 [9]): confirmed antiviral activity
- EC50 (EV1 [9]; Enterovirus B, read-out: EC50 other): 8.92 µM
- CC50 (in vitro [5]; CC50 CTG): 28.5 µM
- CC50 (in vitro [5]; CC50 CTxG): > 30 µM

Molecule: CO[C@H]1C[C@@H]2CC[C@@H](C)[C@@](O)(O2)C(=O)C(=O)N2CCCC[C@H]2C(=O)O[C@H]([C@H](C)C[C@@H]2CC[C@@H](O)[C@H](OC)C2)CC(=O)[C@H](C)/C=C(\C)[C@@H](O)[C@@H](OC)C(=O)[C@H](C)C[C@H](C)/C=C/C=C/C=C/1C [Rapamycin]
- SI (minimal selectivity index, CC50/EC50) (HIV-1; HIV-1, TZM-bl cells): >1
- primary screen hit against HIV-1 (HIV-1; HIV-1, TZM-bl cells): anti-HIV-1 agents
- validation of anti-HIV-1 hit (HIV-1; HIV-1, TZM-bl cells): confirmed
- EC50 (HIV-1): 18.9 µM
- CC50 (in vitro [10]): > 30 µM

Molecule: CC(C)c1nc(CN(C)C(=O)N[C@H](C(=O)N[C@@H](Cc2ccccc2)C[C@H](O)[C@H](Cc2ccccc2)NC(=O)OCc2cncs2)C(C)C)cs1 [Ritonavir]
- screen hit against RVFV [1]: identified
- EC50 [1, 11]: 26.8 µM

Molecule: C[C@H]1c2cccc(O)c2C(=O)C2=C(O)[C@]3(O)C(=O)C(C(N)=O)=C(O)[C@@H](N(C)C)[C@@H]3[C@@H](O)[C@@H]21 [doxycycline]
- screen hit against RVFV [1]: identified

Molecule: COc1cc2ncnc(Nc3ccc(F)c(Cl)c3)c2cc1OCCCN1CCOCC1 [gefitinib]
- screen hit against RVFV [1]: identified

Molecule: CC[C@@]1(O)C(=O)OCc2c1cc1n(c2=O)Cc2cc3c(CN(C)C)c(O)ccc3nc2-1 [topotecan]
- screen hit against RVFV [1]: identified

Molecule: Bortezamib
- CC50 (A549 cells): > 100 µM
- screen hit against RVFV [1]: identified
- EC50 ([1]; read-out: EC50 other): < 0.39 µM
